Broadly, the melting point is the temperature, or range, at which the solid turns liquid.

The subject of series [1] is human renal cancer 786-0 cells. As to the kind of experiment: Cell growth inhibition test against renal cancer cells (XTT). The settings on record: read-out: GI50 value (concentration of 50% growth inhibition). In kind it is cell-based. The method, then:
(§1) A549 cells (1000 cells/well), SK-OV-3 cells (2000 cells/well), or HCT 116 cells (1000 cells/well) were seeded in each well of 96-well plates (Nunc, catalog No. 167008), and cultured overnight. Test compounds diluted stepwise were added, and the cells were further cultured for 72 hours (final volume: 100 μL/well). Fifty μL XTT labeling mixture of Cell Proliferation Kit II (XTT) (Roche Diagnostics, catalog No. 1465015) was added to each well, and the plates were incubated at 37° C. After 1 to 3 hours, absorbance at 490 nm (reference wavelength: 655 nm) was measured with a plate reader (Molecular Device, SpectraMax 340PC^384). Growth ratios of the cells in the wells treated with the test compounds were calculated based on the growth ratio of the cells in the control well treated with solvent (dimethyl sulfoxide (DMSO)) for 72 hours, which was defined as 100%.
(§2) As cancer cell lines, human pancreatic cancer MIA PaCa-2 cells (JCRB No. 0070), human cervical cancer HeLa cells (ATCC No. CCL-2), human breast cancer MDA-MB-468 cells (ATCC No. HTB-132), human prostate cancer DU 145 cells (ATCC No. HTB-81), human skin cancer SK-MEL-28 cells (ATCC No. HTB-72), human head and neck cancer KB cells (JCRB No. 9027), human renal cancer 786-0 cells (ATCC No. CRL-1932), and human liver cancer Hep G2 cells (ATCC No. HB-8065) were used. The cells were cultured at 37° C. in a 5% carbon dioxide atmosphere (except for the human breast cancer MDA-MB-468 cells, which were cultured under the condition at 37° C.) by using the mediums mentioned below, respectively.
(§3) In the same manner as that in Test Example 1, the cells were seeded (500 to 4000 cells/well, respectively) in each well of 96-well plates (Nunc, catalog No. 167008), and growth ratios of the cells treated with test compounds were calculated. The measurement of absorbance was performed at 1.5 to 3 hours after the addition of the XTT labeling mixture.
Background: Formazan colour is commonly taken as a measure of viable cells.

The subject of series [2] is human lung cancer A549 cells. Description: Cell growth inhibition test against lung cancer cells (XTT). Type of series: cell-based. The settings on record: read-out: GI50 value (concentration of 50% growth inhibition), 72 hours. As to the method:
(§4) As cancer cell lines, human lung cancer A549 cells (ATCC No. CCL-185), human ovarian cancer SK-OV-3 cells (ATCC No. HTB-77), and human colon cancer HCT 116 cells (ATCC No. CCL-247) were used. For the culture of A549 cells, Nutrient Mixture F-12K medium (Invitrogen, catalog No. 21127-022) containing 10% fetal bovine serum (Invitrogen, catalog No. 10099-141), 100 units/mL penicillin (Invitrogen, catalog No. 15140-122), and 100 μg/mL streptomycin (Invitrogen, catalog No. 15140-122) was used. For the culture of SK-OV-3 cells and HCT 116 cells, McCoy's 5A medium (Invitrogen, catalog No. 16600-082) containing 10% fetal bovine serum (Invitrogen, catalog No. 10099-141), 100 units/mL penicillin (Invitrogen, catalog No. 15140-122), and 100 μg/mL streptomycin (Invitrogen, catalog No. 15140-122) was used. The cells were cultured at 37° C. in a 5% carbon dioxide atmosphere.
as §1

Series [3] concerns human colon cancer HCT 116 cells. Description: Cell growth inhibition test against colon cancer cells (XTT). The settings on record: read-out: GI50 value (concentration of 50% growth inhibition), 72 hours. In kind it is cell-based. As to the method:
as §4, §1

The target of series [4] is T1, recombinant human Eg5 motor domain protein (Homo sapiens, UniProt P52732).
T1 construct: A plasmid expressing the motor domain of human Eg5 was constructed; made in house; host or cells: Escherichia coli BL21 (DE3)
T1 sequence (P52732 18-359 limits assumed): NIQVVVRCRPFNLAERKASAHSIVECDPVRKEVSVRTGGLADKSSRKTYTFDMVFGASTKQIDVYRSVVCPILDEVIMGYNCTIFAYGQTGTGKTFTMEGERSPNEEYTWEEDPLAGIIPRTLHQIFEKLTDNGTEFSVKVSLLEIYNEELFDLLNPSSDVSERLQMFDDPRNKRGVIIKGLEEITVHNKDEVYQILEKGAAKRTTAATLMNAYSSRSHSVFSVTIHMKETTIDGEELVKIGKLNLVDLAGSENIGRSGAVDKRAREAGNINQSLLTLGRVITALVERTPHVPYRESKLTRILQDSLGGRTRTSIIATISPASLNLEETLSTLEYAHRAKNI
Description: Eg5 enzyme inhibition test (ATPase activity). Type of series: biochemical. The settings on record: for IC50: 30° C., 30 minutes, absorbance at 360 nm, read-out: Inhibition ratios (IC50) on the ATPase activity of Eg5. The method, then:
A recombinant human Eg5 motor domain protein was prepared by referring to the literature [Biochemistry, Vol. 35, p. […] A plasmid expressing the motor domain of human Eg5 was constructed, and transformed into Escherichia coli BL21 (DE3). The transformant was cultured at 25° C., and when the OD600 reached 0.74, isopropyl-β-D-thiogalactoside was added at a final concentration of 0.5 mmol/L. The transformant was further cultured for 4 hours, and then the culture medium was centrifuged to collect the cells. The cells were suspended in a buffer and ultrasonicated, and then the sonicated solution was centrifuged to recover the supernatant. The supernatant was purified by cation exchange column chromatography to obtain a partially purified sample. Furthermore, the partially purified sample was purified by gel filtration column chromatography to obtain a finally purified sample.
Measurement of the ATPase activity of Eg5 was carried out by referring to the literatures [EMBO Journal, Vol. 13, p. […] Solution A was dispensed into each well of a 96-well plate as 45 μL portions. Solution B was used to serially dilute a test compound. The diluted test compound solutions in a volume of 30 μL were mixed with Solution A added beforehand in each well of the 96-well plate to start the enzymatic reaction. The enzymatic reaction was performed at 30° C. for 30 minutes. […] The relative activity was calculated to calculate IC50 value.

The subject of series [5] is human head and neck cancer KB cells. As to the kind of experiment: Cell growth inhibition test against head and neck cancer cells (XTT). In kind it is cell-based. As to conditions: read-out: GI50 value (concentration of 50% growth inhibition). The method, then:
as §1, §2, §3

Series [6] deals with human breast cancer MDA-MB-468 cells. As to the kind of experiment: Cell growth inhibition test against breast cancer cells (XTT). In kind it is cell-based. The settings on record: read-out: GI50 value (concentration of 50% growth inhibition). As to the method:
as §1, §2, §3

Series [7] relates to human liver cancer Hep G2 cells. Description: Cell growth inhibition test against liver cancer cells (XTT). As to conditions: HepG2, read-out: GI50 value (concentration of 50% growth inhibition). Type of series: cell-based. The method, then: as §1, §2, §3
Series [8] deals with human ovarian cancer SK-OV-3 cells. Description: Cell growth inhibition test against ovarian cancer cells (XTT). In kind it is cell-based. As to conditions: read-out: GI50 value (concentration of 50% growth inhibition), 72 hours. As to the method:
as §4, §1

For series [9], the system named is human pancreatic cancer MIA PaCa-2 cells. Description: Cell growth inhibition test against pancreatic cancer cells (XTT). Type of series: cell-based. As to conditions: read-out: GI50 value (concentration of 50% growth inhibition). As to the method:
as §1, §2, §3

For series [10], the system named is human prostate cancer DU 145 cells. Description: Cell growth inhibition test against prostate cancer cells (XTT). Type of series: cell-based. The settings on record: read-out: GI50 value (concentration of 50% growth inhibition). The method, then: as §1, §2, §3
Series [11] relates to human cervical cancer HeLa cells. As to the kind of experiment: Cell growth inhibition test against cervical cancer cells (XTT). Type of series: cell-based. As to conditions: read-out: GI50 value (concentration of 50% growth inhibition). As to the method:
as §1, §2, §3

Series [12] concerns human skin cancer SK-MEL-28 cells. Description: Cell growth inhibition test against skin cancer cells (XTT). Type of series: cell-based. As to conditions: read-out: GI50 value (concentration of 50% growth inhibition). The method, then:
as §1, §2, §3

With `CC(C)C(=O)N1N=C(NC(=O)C(C)(C)C)SC1(CCNS(C)(=O)=O)c1ccccc1` (single isomer, unassigned; (-)) [Compound d, (−)-N-[4-Isobutyryl-5-(2-methanesulfonylaminoethyl)-5-phenyl-4,5-dihydro-1,3,4-thiadiazol-2-yl]-2,2-dimethylpropanamide], the GI50 was under 10 µM in [1]; under 10 µM in series [2]; under 0.1 µM in series [3]; under 10 µM in [5]; under 10 µM in series [6]; under 10 µM in [7]. Moreover, the GI50 in [8], in series [9], in series [10], in series [11] and in series [12] was under 10 µM each time. For the same molecule, the “Inhibition of the ATPase activity of Eg5 (in words)” value (shortened to “Inhibition”) in [4] is “inhibited the ATPase activity of Eg5 in a concentration-dependent manner”. The IC50 in series [4] is under 0.1 µM.

As to `CCC(=O)N1N=C(NC(=O)C(C)(C)C)SC1(CCNS(C)(=O)=O)c1ccccc1` (single isomer, unassigned; (-)) [Compound b, (−)-N-[5-(2-Methanesulfonylaminoethyl)-5-phenyl-4-propionyl-4,5-dihydro-1,3,4-thiadiazol-2-yl]-2,2-dimethylpropanamide], the GI50 was under 10 µM in series [1]; under 10 µM in series [2]; under 0.1 µM in series [3]; under 10 µM in [5]; under 10 µM in series [6]; under 10 µM in [8]. Also, the GI50 in [9], in [10], in series [11] and in series [12] was under 10 µM each time. Moreover, in series [4], the “Inhibition” value is “inhibited the ATPase activity of Eg5 in a concentration-dependent manner”. In addition, in series [4], the IC50 is under 0.1 µM.

For `CCNCCS(=O)(=O)NCC1(c2ccccc2)SC(NC(=O)C(C)(C)C)=NN1C(=O)C(C)(C)C` (single isomer, unassigned; (-)) [Compound l, (−)-N-[4-(2,2-Dimethylpropionyl)-5-(2-ethylaminoethanesulfonylamino-methyl)-5-phenyl-4,5-dihydro-1,3,4-thiadiazol-2-yl]-2,2-dimethylpropanamide], the GI50 in series [1] is under 10 µM; in series [2], under 10 µM; in series [3], under 0.1 µM; in series [5] it was under 10 µM; in series [7] it was under 10 µM; in series [8], under 10 µM. Moreover, the GI50 in series [9], in [10], in [11] and in series [12] was under 10 µM each time. Further, the “Inhibition” value in series [4] is “inhibited the ATPase activity of Eg5 in a concentration-dependent manner”. In addition, the IC50 in series [4] is under 0.1 µM.

Consider `CC(=O)N1N=C(N2CCCCC2=O)SC1(CCNS(C)(=O)=O)c1ccccc1` (single isomer, unassigned; (-)) [Compound h, (−)-N-{2-[3-Acetyl-5-(2-oxopiperidino)-2-phenyl-2,3-dihydro-1,3,4-thiadiazol-2-yl]ethyl}methanesulfonamide], for which the melting point fell in the range of 169 to 171 °C. The GI50 in [1] was under 10 µM. The GI50 in series [2] is under 10 µM. In addition, the GI50 in [3] is under 0.1 µM. Further, in series [4], the “Inhibition” value is reported as “inhibited the ATPase activity of Eg5 in a concentration-dependent manner” and the IC50 is under 0.1 µM. Further, the GI50 in [5] is under 10 µM. For the same molecule, the GI50 in series [6] was under 10 µM. Also, the GI50 in series [8] was under 10 µM. Also, the GI50 in [9] was under 10 µM. Further, the GI50 in [10] was under 10 µM. In addition, the GI50 in series [11] was under 10 µM. For the same molecule, in [12], the GI50 was under 10 µM.

Source of the values: US20080194653A1, “Therapeutic Agent For Solid Tumor” (KYOWA HAKKO KOGYO CO., LTD., priority 2005, published 2008).
